Test results reported in patent US12264173B2 (GILEAD SCIENCES, INC., priority 2020, dated 2025).
Read-outs that look alike come from different tables or passages of the source.

Key:
Assay type in all cases: cell-based
DENV2 replicon = test: DENV-2 Huh-7 Rep EC50 (replicon luminescence)
Method in brief: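 Huh-7 cells carrying a DENV2 replicon, 5,000 cells/well, were incubated with dosed compounds for 48 h at 37° C. EnduRen live-cell substrate was added 1.5 h before luminescence reading. EC50 came from dose-response against DMSO-only wells.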

RSV strain A2 = test: microbe, parasite or virus in culture; details: Table 3, HEp-2 cells, RSV A2, 4 days, read-out: RSV HEp-2 EC50
Method in brief: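 Cytopathic-effect protection assay: HEp-2 cells (50,000/mL) infected with pre-titered RSV A2 onto 3-fold serial compound dilutions, incubated 4 days at 37° C. Cell viability read by CellTiter-Glo luminescence; percent inhibition derived against 0% and 100% virus-inhibition controls.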

HRV16 = HRV16 HeLa EC50 (cytopathic effect in H1-HeLa cells)
Method in brief: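 H1-HeLa cells seeded one day before, given 3-fold serial compound dilutions in triplicate just prior to infection with pre-titrated virus. Incubated 96 h at 33 °C/5% CO2; protection from cytopathic effect read as viability by CellTiter-Glo luminescence, normalised to infected untreated (0%) and uninfected (100%) controls.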

RSV A2 = test: RSV NHBE EC50 (RSV A2 antiviral assay in NHBE cells); details: read-out: RSV NHBE EC50
Method in brief: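 NHBE cells (7,500/well, passage ≤6) given 3-fold serially diluted compound (0.05% DMSO final), then infected with RSV A2 at 1×10^4.5 tissue culture infectious doses/mL. After 4 days at 37 °C, viability measured by CellTiter-Glo luminescence at 25 °C.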

[1] = Dengue virus, DENV2, Huh-7, 48 h, read-out: DENV-2 REP Huh7 EC50
[2] = human respiratory syncytial virus, HEp-2, 96 h
[3] = 96 h, Table 3, H1-HeLa cells, 96 h, read-out: HRV16 HeLa EC50
[4] = HeLa, read-out: HRV16 HeLa EC50, Table 5 comparative activity, 2',3'-OH vs -OC(O)iPr
[5] = human respiratory syncytial virus, NHBE, 96 h, Table 3, NHBE cells, RSV A2, 4 days
[6] = human respiratory syncytial virus, NHBE, Table 5 comparative activity, 2',3'-OH vs -OC(O)iPr
[7] = Table 3, Huh-7 DENV2 replicon cells, 48 hours, read-out: DENV-2 REP Huh7 EC50
[8] = Table 3, H1-HeLa cells, 96 h, read-out: HRV16 HeLa EC50
[9] = Table 3, NHBE cells, RSV A2, 4 days

SMILES	EC50 (DENV2 replicon; [1]) [µM]	EC50 (RSV strain A2; [2]) [µM]	EC50 (HRV16; [3]) [µM]	EC50 (HRV16; [4]) [µM]	EC50 (RSV A2; [5]) [µM]	EC50 (RSV A2; [6]) [µM]	EC50 (DENV2 replicon; Dengue virus, DENV2, Huh-7, read-out: DENV Rep EC50) [µM]	EC50 (DENV2 replicon; [7]) [µM]	EC50 (RSV strain A2) [µM]	EC50 (HRV16; [8]) [µM]	EC50 (RSV A2; [9]) [µM]
COC(=O)[C@H](C)N[P@](=O)(OC[C@@]1(C#N)O[C@@H](c2ccc3c(N)ncnn23)[C@H](OC(=O)C(C)C)[C@@H]1OC(=O)C(C)C)Oc1ccccc1 (single isomer, unassigned) [Example 140]	5.27	0.042	0.083	0.083	0.014	0.014					
CCC(=O)O[C@H]1[C@H](c2ccc3c(N)ncnn23)O[C@](C#N)(CO[P@@](=O)(N[C@@H](C)C(=O)OC)Oc2ccccc2)[C@H]1OC(=O)CC (single isomer, unassigned) [Example 143]	5.57	0.092	0.221		0.018						
CCOC(=O)[C@H](C)N[P@](=O)(OC[C@@]1(C#N)O[C@@H](c2ccc3c(N)ncnn23)[C@H](OC(=O)C(C)C)[C@@H]1OC(=O)C(C)C)Oc1ccccc1 (single isomer, unassigned) [Example 144]	6.17	0.034	0.093	0.092	0.022	0.022	6.17				
CC(C)C(=O)O[C@H]1[C@H](c2ccc3c(N)ncnn23)O[C@](C#N)(COP(=O)(N[C@@H](C)C(=O)OCC2CCOCC2)Oc2ccccc2)[C@H]1OC(=O)C(C)C (single isomer, unassigned) [Example 183]								3.65	0.069	0.088	0.05
CC(C)C(=O)O[C@H]1[C@H](c2ccc3c(N)ncnn23)O[C@](C#N)(COP(=O)(N[C@@H](C)C(=O)OC2COC2)Oc2ccccc2)[C@H]1OC(=O)C(C)C (single isomer, unassigned) [Example 186]								4.22	0.041	0.044	0.004
CC(C)C(=O)O[C@H]1[C@H](c2ccc3c(N)ncnn23)O[C@](C#N)(COP(=O)(N[C@@H](C)C(=O)OCC2COC2)Oc2ccccc2)[C@H]1OC(=O)C(C)C (single isomer, unassigned) [Example 201]								7.69	0.092	0.177	0.014
CCC(CC)COC(=O)[C@H](C)N[P@](=O)(OC[C@@]1(C#N)O[C@@H](c2ccc3c(N)ncnn23)C(OC(=O)C(C)C)[C@@H]1OC(=O)C(C)C)Oc1ccccc1 (stereo in doubt) [Example 86, (2R,3S,4R,5S)-5-(4-aminopyrrolo[2,1-f][1,2,4]triazin-7-yl)-2-cyano-2-((((S)-(((S)-1-(2-ethylbutoxy)-1-oxopropan-2-yl)amino)(phenoxy)phosphoryl)oxy)methyl) tetrahydrofuran-3,4-diyl bis(2-methylpropanoate)]	8.95	0.1	0.192		0.024						
CC(C)C(=O)O[C@H]1[C@H](c2ccc3c(N)ncnn23)O[C@](C#N)(CO[P@@](=O)(N[C@@H](C)C(=O)OC2CCCCC2)Oc2ccccc2)[C@H]1OC(=O)C(C)C [Example 77, (2R,3S,4S,5S)-5-(4-aminopyrrolo[2,1-f][1,2,4]triazin-7-yl)-2-cyano-2-((((S)-(((S)-1-(cyclohexyloxy)-1-oxopropan-2-yl)amino)(phenoxy)phosphoryl)oxy)methyl) tetrahydrofuran-3,4-diyl bis(2-methylpropanoate)]	5.39	0.057	0.152		0.024						
CCC(=O)O[C@H]1[C@H](c2ccc3c(N)ncnn23)O[C@](C#N)(CO[P@@](=O)(N[C@@H](C)C(=O)OC2CCCCC2)Oc2ccccc2)[C@H]1OC(=O)CC [Example 82, (2R,3S,4S,5S)-5-(4-aminopyrrolo[2,1-f][1,2,4]triazin-7-yl)-2-cyano-2-((((S)-(((S)-1-(cyclohexyloxy)-1-oxopropan-2-yl)amino)(phenoxy)phosphoryl)oxy)methyl) tetrahydrofuran-3,4-diyl dipropionate]	7.63	0.058	0.201		0.032						
CCC(=O)O[C@H]1[C@H](c2ccc3c(N)ncnn23)O[C@](C#N)(CO[P@@](=O)(N[C@@H](C)C(=O)OC(C)C)Oc2ccccc2)[C@H]1OC(=O)CC [Example 90, (2R,3S,4S,5S)-5-(4-Aminopyrrolo[2,1-f][1,2,4]triazin-7-yl)-2-cyano-2-((((S)-(((S)-1-isopropoxy-1-oxopropan-2-yl)amino)(phenoxy)phosphoryl)oxy)methyl) tetrahydrofuran-3,4-diyl dipropionate]	24.3	0.109	0.259		0.045						
CCC(=O)O[C@H]1[C@H](c2ccc3c(N)ncnn23)O[C@](C#N)(CO[P@@](=O)(N[C@@H](C)C(=O)OCC2CC2)Oc2ccccc2)[C@H]1OC(=O)CC [Example 99]								6.31	0.058	0.116	0.014
COC(=O)[C@H](C)N[P@](=O)(OC[C@@]1(C#N)O[C@@H](c2ccc3c(=N)n(COP(=O)(O)O)cnn23)[C@H](OC(=O)C(C)C)[C@@H]1OC(=O)C(C)C)Oc1ccccc1 [Example 259, (2R,3S,4S,5S)-2-cyano-5-(4-imino-3-((phosphonooxy)methyl)-3,4-dihydropyrrolo[2,1-f][1,2,4]triazin-7-yl)-2-((((S)-(((S)-1-methoxy-1-oxopropan-2-yl)amino)(phenoxy)phosphoryl)oxy)methyl)tetrahydrofuran-3,4-diyl bis(2-methylpropanoate)]	5.36	0.036			0.011						
